ChEMBL document CHEMBL1157764, “Conserved high activity binding peptides are involved in adhesion of two detergent-resistant membrane-associated merozoite proteins to red blood cells during invasion” (J Med Chem, 2010)
Where a SMILES comes first, the peptide text is derived from it.

Organism: Homo sapiens
Assay: Binding affinity to RBC membrane receptor in human RBCs assessed as specific binding activity measured as ratio of specifically bound peptide/added peptide by gamma counter

Row | SMILES | Activity
1 | CC(C)C[C@H](NC(=O)[C@@H](NC(=O)[C@@H](N)CC(=O)O)C(C)C)C(=O)N[C@@H](CO)C(=O)N[C@@H](CCC(=O)O)C(=O)N[C@@H](CO)C(=O)N[C@@H](CC(N)=O)C(=O)N[C@@H](CC(N)=O)C(=O)N[C@@H](CCC(=O)O)C(=O)N[C@@H](CC(N)=O)C(=O)N[C@@H](CCCCN)C(=O)N[C@@H](CCC(=O)O)C(=O)N[C@H](C(=O)N[C@@H](CO)C(=O)N[C@@H](CC(=O)O)C(=O)N[C@@H](CC(=O)O)C(=O)N[C@@H](C)C(=O)N[C@H](C(=O)N[C@@H](Cc1cnc[nH]1)C(=O)N[C@@H](Cc1ccc(O)cc1)C(=O)O)[C@@H](C)O)[C@@H](C)O | > 2%
2 | CC(C)C[C@H](NC(=O)[C@H](CC(C)C)NC(=O)[C@H](CO)NC(=O)[C@@H]1CCCN1C(=O)[C@@H](NC(=O)[C@H](CC(C)C)NC(=O)[C@H](Cc1ccc(O)cc1)NC(=O)[C@H](CO)NC(=O)[C@H](CCCCN)NC(=O)[C@H](CCCCN)NC(=O)[C@H](CCCCN)NC(=O)CNC(=O)[C@@H](NC(=O)[C@H](CO)NC(=O)[C@H](CS)NC(=O)[C@H](CCCCN)NC(=O)[C@H](Cc1cnc[nH]1)NC(=O)[C@H](Cc1ccc(O)cc1)NC(=O)[C@H](CC(=O)O)NC(=O)[C@@H](N)CO)C(C)C)[C@@H](C)O)C(=O)O | < 2%
3 | CC(C)C[C@H](NC(=O)[C@H](CC(N)=O)NC(=O)[C@H](CC(C)C)NC(=O)[C@@H]1CCCN1C(=O)[C@H](CC(N)=O)NC(=O)[C@H](CCCCN)NC(=O)[C@H](Cc1ccc(O)cc1)NC(=O)[C@@H](N)CS)C(=O)N[C@@H](CCCCN)C(=O)N[C@H](C(=O)N[C@@H](CC(C)C)C(=O)N[C@@H](CCC(=O)O)C(=O)N[C@H](C(=O)N[C@@H](CC(C)C)C(=O)N[C@@H](CC(C)C)C(=O)N[C@@H](CCCCN)C(=O)N[C@@H](CCCCN)C(=O)N[C@@H](CC(N)=O)C(=O)N[C@@H](Cc1ccc(O)cc1)C(=O)N[C@@H](Cc1ccc(O)cc1)C(=O)O)C(C)C)C(C)C | > 2%
4 | CC(C)[C@H](NC(=O)[C@H](Cc1ccc(O)cc1)NC(=O)[C@@H](N)CCC(=O)O)C(=O)N[C@@H](CC(N)=O)C(=O)N[C@@H](C)C(=O)N[C@@H](CC(N)=O)C(=O)N[C@@H](CO)C(=O)N[C@@H](CO)C(=O)N[C@@H](CCC(=O)O)C(=O)N[C@@H](CO)C(=O)N[C@@H](CO)C(=O)N[C@@H](CCC(=O)O)C(=O)N[C@@H](CCC(=O)O)C(=O)N[C@@H](CC(=O)O)C(=O)N[C@H](C(=O)N[C@H](C(=O)N1CCC[C@H]1C(=O)N[C@@H](CC(N)=O)C(=O)N[C@@H](CCC(=O)O)C(=O)N[C@H](C(=O)O)[C@@H](C)O)[C@H](C)O)[C@@H](C)O | > 2%
5 | CC[C@H](C)[C@H](N)C(=O)N[C@@H](CCCCN)C(=O)N[C@@H](Cc1ccc(O)cc1)C(=O)N[C@H](C(=O)N[C@@H](CCC(=O)O)C(=O)N[C@@H](Cc1ccccc1)C(=O)N[C@@H](Cc1ccccc1)C(=O)N[C@@H](CCC(=O)O)C(=O)N[C@@H](CO)C(=O)N[C@@H](CC(N)=O)C(=O)N[C@@H](Cc1ccc(O)cc1)C(=O)N[C@@H](CC(N)=O)C(=O)N[C@@H](CCCNC(=N)N)C(=O)N[C@@H](CC(C)C)C(=O)N[C@@H](CCCCN)C(=O)N[C@@H](CCCNC(=N)N)C(=O)N[C@@H](CO)C(=O)N[C@@H](Cc1ccccc1)C(=O)N[C@@H](CCC(N)=O)C(=O)N[C@@H](CCCCN)C(=O)O)[C@@H](C)O | < 2%
6 | CC[C@H](C)[C@H](NC(=O)[C@@H](N)CO)C(=O)N[C@@H](CCC(=O)O)C(=O)N[C@@H](C)C(=O)N[C@@H](CO)C(=O)N[C@@H](CCC(=O)O)C(=O)N[C@@H](CO)C(=O)N[C@@H](CO)C(=O)N[C@@H](CCC(N)=O)C(=O)N[C@@H](CCCCN)C(=O)N[C@@H](CC(=O)O)C(=O)N[C@@H](CCC(=O)O)C(=O)N[C@H](C(=O)N[C@@H](CCCCN)C(=O)N[C@@H](CCC(=O)O)C(=O)N[C@H](C(=O)N[C@@H](CCC(=O)O)C(=O)N[C@@H](CC(=O)O)C(=O)N[C@@H](CCCCN)C(=O)N[C@@H](CCC(=O)O)C(=O)N[C@@H](Cc1ccc(O)cc1)C(=O)O)[C@H](C)O)[C@@H](C)O | > 2%
7 | CC[C@H](C)[C@H](NC(=O)[C@H](C)NC(=O)[C@H](CCC(=O)O)NC(=O)[C@H](C)NC(=O)[C@H](CC(=O)O)NC(=O)[C@@H](NC(=O)[C@H](CO)NC(=O)[C@H](CC(=O)O)NC(=O)[C@H](CCC(=O)O)NC(=O)[C@H](CC(=O)O)NC(=O)[C@H](CC(N)=O)NC(=O)[C@H](CCC(N)=O)NC(=O)[C@H](CCC(N)=O)NC(=O)[C@H](CC(C)C)NC(=O)[C@H](CCC(=O)O)NC(=O)[C@@H](N)CCC(=O)O)[C@@H](C)O)C(=O)N[C@@H](CC(=O)O)C(=O)N[C@@H](CCCCN)C(=O)N[C@@H](CCC(=O)O)C(=O)N[C@@H](CCC(=O)O)C(=O)N[C@H](C(=O)N[C@@H](CCC(=O)O)C(=O)N[C@@H](Cc1ccc(O)cc1)C(=O)O)C(C)C | > 2%
8 | CC[C@H](C)[C@H](NC(=O)[C@H](CC(=O)O)NC(=O)[C@H](CC(N)=O)NC(=O)[C@H](CC(N)=O)NC(=O)[C@@H](N)CCC(N)=O)C(=O)N[C@@H](CC(=O)O)C(=O)N[C@@H](Cc1cnc[nH]1)C(=O)N[C@@H](CO)C(=O)N[C@@H](CCC(=O)O)C(=O)N[C@@H](CC(=O)O)C(=O)N[C@@H](CCCCN)C(=O)N[C@@H](CCCCN)C(=O)N[C@@H](CC(C)C)C(=O)N[C@H](C(=O)N[C@@H](CO)C(=O)N[C@@H](CCCNC(=N)N)C(=O)N[C@H](C(=O)N[C@@H](CC(C)C)C(=O)N[C@@H](Cc1ccc(O)cc1)C(=O)N[C@@H](Cc1ccc(O)cc1)C(=O)O)C(C)C)[C@@H](C)CC | < 2%
9 | CC[C@H](C)[C@H](NC(=O)[C@H](CC(C)C)NC(=O)[C@@H](N)C(C)C)C(=O)N[C@@H](C)C(=O)N[C@@H](CCC(=O)O)C(=O)NCC(=O)N[C@@H](Cc1ccc(O)cc1)C(=O)N[C@@H](CCCCN)C(=O)N[C@@H](CCCNC(=N)N)C(=O)N[C@H](C(=O)N[C@@H](CC(N)=O)C(=O)N[C@@H](CCC(=O)O)C(=O)N[C@@H](CCCCN)C(=O)N[C@@H](CCC(=O)O)C(=O)N[C@@H](CC(=O)O)C(=O)N[C@H](C(=O)N[C@@H](CC(=O)O)C(=O)N[C@@H](CCCNC(=N)N)C(=O)N[C@@H](CCCNC(=N)N)C(=O)O)[C@@H](C)CC)[C@@H](C)CC | > 2%
10 | CC[C@H](C)[C@H](NC(=O)[C@H](CCC(N)=O)NC(=O)CNC(=O)[C@H](C)NC(=O)[C@@H](N)CC(C)C)C(=O)N[C@@H](CC(N)=O)C(=O)NCC(=O)N[C@@H](CC(C)C)C(=O)N[C@@H](CC(N)=O)C(=O)N[C@@H](CC(=O)O)C(=O)N[C@@H](CC(C)C)C(=O)N[C@@H](Cc1ccc(O)cc1)C(=O)NCC(=O)N[C@@H](CCCNC(=N)N)C(=O)N[C@@H](CC(N)=O)C(=O)N[C@@H](CO)C(=O)N[C@@H](CCCCN)C(=O)N[C@@H](CCCCN)C(=O)N[C@H](C(=O)N[C@@H](Cc1ccc(O)cc1)C(=O)O)[C@@H](C)O | < 2%
11 | CC[C@H](C)[C@H](NC(=O)[C@H](CCCNC(=N)N)NC(=O)[C@H](CC(C)C)NC(=O)[C@H](CC(=O)O)NC(=O)[C@H](CCC(=O)O)NC(=O)[C@@H](NC(=O)[C@@H](NC(=O)[C@H](CO)NC(=O)CNC(=O)[C@H](CCCCN)NC(=O)[C@@H](N)CCCCN)[C@@H](C)CC)[C@@H](C)O)C(=O)N[C@H](C(=O)N[C@@H](CC(N)=O)C(=O)N[C@@H](CC(=O)O)C(=O)N[C@@H](CC(C)C)C(=O)N[C@@H](CCC(=O)O)C(=O)N1CCC[C@H]1C(=O)N[C@@H](CC(C)C)C(=O)N[C@@H](CC(=O)O)C(=O)N[C@@H](Cc1ccc(O)cc1)C(=O)O)C(C)C | > 2%
12 | CC[C@H](C)[C@H](NC(=O)[C@H](Cc1ccc(O)cc1)NC(=O)[C@H](CCCCN)NC(=O)[C@H](CC(N)=O)NC(=O)[C@@H](N)CCCCN)C(=O)N[C@@H](CO)C(=O)N[C@@H](CC(C)C)C(=O)N[C@@H](Cc1ccc(O)cc1)C(=O)N[C@@H](CC(N)=O)C(=O)N[C@@H](CCCCN)C(=O)N[C@H](C(=O)N[C@@H](CCCCN)C(=O)N[C@H](C(=O)N[C@H](C(=O)N[C@@H](CCSC)C(=O)N1CCC[C@H]1C(=O)N[C@@H](CCC(=O)O)C(=O)N[C@@H](CC(C)C)C(=O)N[C@@H](Cc1ccccc1)C(=O)N[C@@H](CC(=O)O)C(=O)O)[C@@H](C)O)[C@H](C)O)C(C)C | > 2%
13 | CC[C@H](C)[C@H](NC(=O)[C@H](Cc1ccccc1)NC(=O)[C@H](CC(C)C)NC(=O)[C@H](CC(C)C)NC(=O)[C@H](CC(C)C)NC(=O)[C@H](CC(C)C)NC(=O)[C@@H](NC(=O)[C@@H](NC(=O)[C@H](CC(C)C)NC(=O)[C@H](CC(C)C)NC(=O)[C@H](C)NC(=O)[C@H](CC(N)=O)NC(=O)[C@H](CO)NC(=O)[C@H](CCSC)NC(=O)[C@H](C)NC(=O)[C@H](Cc1ccccc1)NC(=O)[C@@H](N)Cc1ccccc1)C(C)C)[C@@H](C)CC)C(=O)N[C@@H](CCC(=O)O)C(=O)N[C@@H](Cc1ccccc1)C(=O)N[C@@H](CC(C)C)C(=O)N[C@@H](Cc1ccc(O)cc1)C(=O)O | > 2%
14 | CC[C@H](C)[C@H](NC(=O)[C@H](CO)NC(=O)[C@H](CCCCN)NC(=O)[C@@H](N)CC(=O)O)C(=O)N[C@H](C(=O)N[C@@H](Cc1cnc[nH]1)C(=O)N[C@@H](Cc1ccccc1)C(=O)N[C@@H](Cc1ccc(O)cc1)C(=O)N[C@@H](CS)C(=O)N[C@@H](CCC(=O)O)C(=O)N[C@@H](CS)C(=O)N[C@@H](CC(N)=O)C(=O)N[C@H](C(=O)N[C@@H](CC(N)=O)C(=O)N[C@@H](CC(N)=O)C(=O)N[C@@H](CC(N)=O)C(=O)N[C@H](C(=O)N[C@H](C(=O)N[C@@H](CCCCN)C(=O)N[C@H](C(=O)O)C(C)C)[C@@H](C)CC)C(C)C)C(C)C)[C@@H](C)CC (H-DKSIIHFYCECNVNNNVIKV-OH) | > 2%
15 | CC[C@H](C)[C@H](NC(=O)[C@H](Cc1ccc(O)cc1)NC(=O)[C@H](CS)NC(=O)[C@@H]1CCCN1C(=O)[C@H](CC(=O)O)NC(=O)[C@@H](N)CCC(=O)O)C(=O)N[C@@H](CC(N)=O)C(=O)N[C@@H](CC(N)=O)C(=O)N[C@@H](CO)C(=O)N[C@@H](Cc1ccc(O)cc1)C(=O)N[C@H](C(=O)N[C@@H](CO)C(=O)N[C@H](C(=O)N[C@@H](CC(N)=O)C(=O)N[C@H](C(=O)N[C@H](C(=O)N[C@@H](CS)C(=O)N[C@@H](CC(N)=O)C(=O)N[C@@H](CCCCN)C(=O)N[C@@H](CCC(=O)O)C(=O)O)C(C)C)C(C)C)C(C)C)C(C)C (H-EDPCYINNSYVSVNVVCNKE-OH) | > 2%
